Experimental data from US7943606B2, “Compositions and methods to control abnormal cell growth” (CanCure Laboratories, LLC, priority 2005, dated 2011).

Assays:
CCF-STTG1 cells = experiment: Viability of CCF-STTG1 astrocytoma cells (MTT assay); type: cell-based, human; conditions: 100-200 μM, 72 hours
Procedure: To quantify cell death, around the time when significant and characteristic morphological changes took place, cells were pulse-labeled for 10 minutes with [^3H]thymidine to measure DNA activity as described elsewhere [Tomono, M. and Kiss, Z. (1995), “Ethanol enhances the stimulatory effects of insulin and insulin-like growth factor-I on DNA synthesis in NIH 3T3 fibroblasts,” Biochem. Biophys. Res. Commun. 208, 63-67]. Also, cells were collected as suspensions using trypsin, an established method in cell biology, followed by re-plating of cells in fresh tissue culture medium. If no viable cells were obtained after one week in culture, it meant that the cells at the time of re-plating were dead. Survival values obtained with untreated cells were considered 100%. For the determination of relative number of viable cells after treatments, in most cases the MTT assay was used. This calorimetric assay is based on the ability of living cells, but not dead cells, to reduce 3-(4,5-dimethyl thiazol-2-yl)-2,5-diphenyltetrazolium bromide [Carmichael, J, De Graff, W. G., Gazdar, A. F., Minna, J. D. and Mitchell, J. B. (1987), “Evaluation of tetrazolium-based semi-automated calorimetric assay: Assessment of chemosensitivity testing,” Cancer Res. 47, 936-942]. For this assay, cells were plated in 96-well plates, and the MTT assay was performed both in untreated and treated cell cultures. […]

MCF-7 cells = experiment: Viability of MCF-7 breast cancer cells; type: cell-based, human
Procedure: (§1) To quantify cell death, around the time when significant and characteristic morphological changes took place, cells were pulse-labeled for 10 minutes with [^3H]thymidine to measure DNA activity as described elsewhere [Tomono, M. and Kiss, Z. (1995), “Ethanol enhances the stimulatory effects of insulin and insulin-like growth factor-I on DNA synthesis in NIH 3T3 fibroblasts,” Biochem. Biophys. Res. Commun. 208, 63-67]. Also, cells were collected as suspensions using trypsin, an established method in cell biology, followed by re-plating of cells in fresh tissue culture medium. If no viable cells were obtained after one week in culture, it meant that the cells at the time of re-plating were dead. Survival values obtained with untreated cells were considered 100%. For the determination of relative number of viable cells after treatments, in most cases the MTT assay was used. This calorimetric assay is based on the ability of living cells, but not dead cells, to reduce 3-(4,5-dimethyl thiazol-2-yl)-2,5-diphenyltetrazolium bromide [Carmichael, J, De Graff, W. G., Gazdar, A. F., Minna, J. D. and Mitchell, J. B. (1987), “Evaluation of tetrazolium-based semi-automated calorimetric assay: Assessment of chemosensitivity testing,” Cancer Res. 47, 936-942]. For this assay, cells were plated in 96-well plates, and the MTT assay was performed both in untreated and treated cell cultures. The MTT assay also was performed at the start of treatments to allow assessment of proliferation rates in the control and treated cell cultures.
About 50% confluent cultures of MCF-7 cells, cultured in 12-well plates in Dulbecco's modified Eagle's medium (DMEM) supplemented with 10% FBS, were either untreated (FIG. 3A), or were treated with 100 μM CCDTHT (CCompound3) for 72 hours (FIG. 3B). […] This experiment was repeated three times with similar results. In some experiments, cells from the CCDTHT-treated cultures were seeded into 96-well plates, and the MTT assay was performed 96 hours later to test for viable cells.
(§2) The NIH 3T3 (normal) mouse fibroblast, A431 human epidermoid adenocarcinoma, and MCF-7 human breast cancer cells were cultured in DMEM medium containing 10% FBS. The MEL-28 human melanoma cells were cultured in MEM medium containing 10% FBS. The HT-29 human colon adenocarcinoma cells were cultured in McCoy's 5a medium containing 10% FBS. The A549 human lung carcinoma cells were maintained in Ham's F12K medium containing 10% FBS. Cells were seeded into 96-well plates and treated at ˜70-90% confluency. Two hours before treatments the medium was changed for fresh 10% serum medium, and then the cells were incubated for 72 hours in the presence of 0-200 μM of CCompound1 (●) or CCompound3 (CCDTHT) (▴), as indicated. The MTT assay was used to determine cell viability after treatments. The values, shown in FIGS. 5A-5F and expressed as percent decrease in viability compared to the untreated control cells, are the mean±std. dev. of 8 incubations in one experiment. Similar results were obtained in another experiment.
NIH 3T3, AN3CA, HT-29, MEL-28, and MCF-7 cells were cultured as described earlier. Cells were seeded into 96-well plates; when cells were ˜80-90% confluent, the medium was changed for fresh 10% serum-containing medium, followed by incubations for 72 hours in the absence (□) or presence of 100 μM CCDTHT ? , 2 mM ethanolamine (Etn) ? , or 100 μM CCDTHT+2 mM Etn (▪). The MTT assay was used to determine cell viability. […]

[1] = Toxicological studies in mice; type: in vivo, mouse
Procedure: Accordingly, a well-tolerated dose for CCDTHT in mice is 450 μmole/animal (weighing about 25 g) which corresponds to a dose of 4.6 mg/kg. Therapeutically effective concentrations in humans will exert maximal inhibitory effects on the growth of non-healthy tissues without causing significant toxicity in normal healthy tissues.
Parallel toxicological studies also have been performed with 200-500 μmole/animal doses of the commercially available CCompound1. […] CCompound26, which may have an even better toxicity profile based on in vitro experiments with normal cells, was synthesized much later and has not yet been tested in animal experiments.

[2] = Viability of NIH 3T3 normal fibroblasts (MTT assay); type: cell-based; conditions: mouse
Procedure: as §1, §2
NIH3T3, T47D, A-431, HT-29, and MEL-28 cells were cultured as indicated earlier. CaOV-3 human ovarian cancer cells were cultured in DMEM containing 10% FBS. ZR-75-1 human estrogen receptor-positive breast cancer cells were maintained in RPMI 1640 medium supplemented with 10% FBS. HTB-157 human fetal fibroblasts, MEL-24 human malignant melanoma cells, Hep G2 human hepatoblastoma cells, and CaCO-2 human colon adenocarcinoma cells were maintained in Eagles's MEM containing 10% FBS. MB-231 human estrogen receptor-negative breast cancer cells were maintained in Leibovitz's L-15 medium supplemented with 10% FBS. Cells were seeded into 96-well plates and treated at ˜70-90% confluency. Two hours prior to treatments the medium was changed for fresh 10% serum medium, and then the cells were incubated for 10 days in the absence (□) or presence of 50 μM CCDTHT ? or 100 μM CCDTHT (▪). The medium was changed and the cells were re-treated on days 3 and 6. The MTT assay was used to determine cell viability on day 10. The data, shown in FIG. 6, are the mean±std. dev. of 8 incubations in one experiment. (The experiment was repeated twice with similar results).
NIH 3T3, MEL-28, MEL-24, CaOV-3, ZR-75-1, and T47D cells were cultured as described above. The OVCAR human ovarian cancer cells were cultured in DMEM containing 10% FBS. Cells were seeded into 96-well plates and used at ˜60-80% confluency. […]

With `CC[N+](C)(CC)CCOCc1ccc2sc3ccccc3c(=O)c2c1.[I-]` [CCDTHT, N,N-diethyl-N-methyl-2-[(9-oxo-9H-thioxanthen-2-yl)methoxy]-ethanaminium iodide] the “number of viable CCF-STTG1 cells” value (CCF-STTG1 cells) was “sharply decrease”, the “decrease in viability, MCF-7” value (MCF-7 cells; 0-200 μM, 72 hours, MTT) was “similarly large effects” and the “viable cells by MTT after re-seeding treated MCF-7 cells” value (MCF-7 cells; 100 μM 72 hours, re-seeded, MTT 96 hours later) was “did not detect viable cells”. The “morphology / cell death, MCF-7” value (MCF-7 cells; 100 μM, 72 hours, 12-well plates) was “practically all cells rounded up”, the “death of animals by day 30” value ([1]; 900 μmole (about 9.2 mg/kg)) was 40% and the tissue alterations ([1]; 900 μmole (about 9.2 mg/kg)) was “mild parenchymal degeneration in the heart, focal hypostasis and chronic bronchopneumonia in the lung, and multifocal degeneration of hepatocytes in the liver”. For the same compound, the “change in the composition of various blood constituents” value ([1]; single 450 μmole (about 4.6 mg/kg) or 400 μmole daily for 5 consecutive days) was “did not cause any significant change”, the “pathological alterations in liver, brain, kidney, heart, spleen, intestine and lung” value ([1]; single 450 μmole or 400 μmole daily for 5 consecutive days) was “did not induce significant pathological alterations” and the cytotoxicity at 10 days, 100 μM [2] was no more than 50%.
